Assay results as given in US12303497B2, “Anti-androgens for the treatment of metastatic castration-sensitive prostate cancer” (priority 2019, dated 2025).

Test system: patients with metastatic castration-sensitive prostate cancer (mCSPC)
[1] = within 30 days of last dose, n = 524

CNC(=O)c1ccc(N2C(=S)N(c3cnc(C#N)c(C(F)(F)F)c3)C(=O)C23CCC3)cc1F [Apalutamide, 4-[7-(6-cyano-5-trifluoromethylpyridin-3-yl)-8-oxo-6-thioxo-5,7-diazaspiro[3.4]oct-5-yl]-2-fluoro-N-methylbenzamide]
AE leading to dose interruption: Syncope (Grade ≥3): 1 (0.2) no. (%)
AE leading to dose interruption: Thrombocytopenia (Grade ≥3): 0 no. (%)
AE leading to dose interruption: Tongue ulceration (Grade ≥3): 0 no. (%)
AE leading to dose interruption: Urethral stenosis (Grade ≥3): 0 no. (%)
AE leading to dose interruption: Urinary incontinence (Grade ≥3): 0 no. (%)
AE leading to dose interruption: Urinary retention (Grade ≥3): 2 (0.4) no. (%)
AE leading to dose interruption: Urinary tract obstruction (Grade ≥3): 1 (0.2) no. (%)
AE leading to dose interruption: Vertigo (Grade ≥3): 1 (0.2) no. (%)
AE leading to dose interruption: Vomiting (Grade ≥3): 0 no. (%)
AE leading to dose interruption: Weight increased (Grade ≥3): 0 no. (%)
AE leading to dose reduction: Aspartate aminotransferase or alanine aminotransferase increased (Grade ≥3): 0 no. (%)
AE leading to dose reduction: Asthenia (Grade ≥3): 0 no. (%)
AE leading to dose reduction: Cognitive disorder (Grade ≥3): 1 (0.2) no. (%)
AE leading to dose reduction: Dehydration (Grade ≥3): 0 no. (%)
AE leading to dose reduction: Fatigue (Grade ≥3): 2 (0.4) no. (%)
AE leading to dose reduction: General physical health deterioration (Grade ≥3): 1 (0.2) no. (%)
AE leading to dose reduction: Headache (Grade ≥3): 0 no. (%)
AE leading to dose reduction: Hot flush (Grade ≥3): 0 no. (%)
AE leading to dose reduction: Hypertension (Grade ≥3): 1 (0.2) no. (%)
AE leading to dose reduction: Lethargy (Grade ≥3): 0 no. (%)
AE leading to dose reduction: Neutropenia (Grade ≥3): 2 (0.4) no. (%)
AE leading to dose reduction: Pain (Grade ≥3): 0 no. (%)
AE leading to dose reduction: Performance status decreased (Grade ≥3): 0 no. (%)
AE leading to dose reduction: Rash (grouped term) (Grade ≥3): 11 (2.1) no. (%)
AE leading to dose reduction: Vertigo (Grade ≥3): 1 (0.2) no. (%)
AE leading to dose reduction: Weight decreased (Grade ≥3): 1 (0.2) no. (%)
AE of special interest: Fall (Grade ≥3): 4 (0.8) no. (%)
AE of special interest: Fracture (grouped term) (Grade ≥3): 7 (1.3) no. (%)
AE of special interest: Hypothyroidism (grouped term) (Grade ≥3): 0 no. (%)
AE of special interest: Rash (grouped term) (Grade ≥3): 33 (6.3) no. (%)
AE of special interest: Seizure (grouped term) (Grade ≥3): 1 (0.2) no. (%)
Patients with treatment-emergent adverse events leading to discontinuation (Grade ≥3): 26 (5.0) no. (%)
Patients with treatment-emergent adverse events leading to dose reduction (Grade ≥3): 19 (3.6) no. (%)
Patients with treatment-emergent events leading to dose interruption (Grade ≥3): 68 (13.0) no. (%)
TEAE: Anemia (Grade ≥3): 9 (1.7) no. (%)
TEAE: Arthralgia (Grade ≥3): 2 (0.4) no. (%)
TEAE: Asthenia (Grade ≥3): 10 (1.9) no. (%)
TEAE: Back pain (Grade ≥3): 12 (2.3) no. (%)
TEAE: Blood alkaline phosphatase increased (Grade ≥3): 2 (0.4) no. (%)
TEAE: Bone pain (Grade ≥3): 6 (1.1) no. (%)
TEAE: Constipation (Grade ≥3): 0 no. (%)
TEAE: Fatigue (Grade ≥3): 8 (1.5) no. (%)
TEAE: Hot flush (Grade ≥3): 0 no. (%)
TEAE: Hypertension (Grade ≥3): 44 (8.4) no. (%)
TEAE: Pain in extremity (Grade ≥3): 3 (0.6) no. (%)
TEAE: Pruritus (Grade ≥3): 1 (0.2) no. (%)
TEAE: Rash generalized (Grade ≥3): 14 (2.7) no. (%)
TEAE: Urinary retention (Grade ≥3): 0 no. (%)
TEAE: Weight increased (Grade ≥3): 6 (1.1) no. (%)
Patients who died as the result of an adverse event (Ten patients): 1.9%
Hypothyroidism reported (all events were grade 1 or 2): 6.5%
AE leading to discontinuation: Suicide (in vivo): 0 no. (%)
AE leading to dose interruption: Acute kidney injury (in vivo): 1 (0.2) no. (%)
AE leading to dose interruption: Acute respiratory failure (in vivo): 1 (0.2) no. (%)
AE leading to dose interruption: Allergy to chemicals (in vivo): 1 (0.2) no. (%)
AE leading to dose interruption: Anemia (in vivo): 0 no. (%)
AE leading to dose interruption: Angina unstable (in vivo): 0 no. (%)
Frequency of grade 3 and 4 events (in vivo): 42.2%
Frequency of serious adverse events (in vivo): 19.8%
Grade 3 rashes (in vivo): 6.3%
Ischemic events led to death (in vivo): two
Ischemic heart disease reported (in vivo): 4.4%
Median time to onset of rash (in vivo): 81 days
Most common event considered related to apalutamide: rash of any type (in vivo): 6.3%
Rash of any grade (treatment-emergent skin rash) (in vivo): 27.1%
Stevens-Johnson syndrome or toxic epidermal necrolysis (in vivo): No Stevens-Johnson syndrome or toxic epidermal necrolysis was reported
All deaths within 30 days of last dose (investigator reported, n = 524): 18 (3.4) no. (%)
AE leading to death: Acute coronary syndrome (n = 524): 0 no. (%)
AE leading to death: Acute kidney injury (n = 524): 2 (0.4) no. (%)
AE leading to death: Acute myocardial infarction (n = 524): 1 (0.2) no. (%)
AE leading to death: Cardiac failure (n = 524): 0 no. (%)
AE leading to death: Cardio-respiratory arrest (n = 524): 1 (0.2) no. (%)
AE leading to death: Cardiogenic shock (n = 524): 1 (0.2) no. (%)
AE leading to death: Cerebrovascular accident (n = 524): 1 (0.2) no. (%)
AE leading to death: Death (n = 524): 0 no. (%)
AE leading to death: Hypothermia (n = 524): 0 no. (%)
AE leading to death: Intracranial hemorrhage (n = 524): 0 no. (%)
AE leading to death: Myocardial infarction (n = 524): 1 (0.2) no. (%)
AE leading to death: Pulmonary embolism (n = 524): 0 no. (%)
AE leading to death: Respiratory failure (n = 524): 1 (0.2) no. (%)
AE leading to death: Sepsis (n = 524): 0 no. (%)
AE leading to death: Subdural hemorrhage (n = 524): 0 no. (%)
AE leading to death: Sudden cardiac death (n = 524): 1 (0.2) no. (%)
AE leading to death: Sudden death (n = 524): 0 no. (%)
AE leading to death: Suicide (n = 524): 0 no. (%)
AE leading to death: Urosepsis (n = 524): 0 no. (%)
AE leading to death: Vascular rupture (n = 524): 0 no. (%)
Adverse event leading to death (n = 524): 10 (1.9) no. (%)
Any adverse event (n = 524): 507 (96.8) no. (%)
Any adverse event leading to treatment discontinuation (n = 524): 42 (8.0) no. (%)
Any serious adverse event (n = 524): 104 (19.8) no. (%)
Grade 3 or 4 adverse event (n = 524): 221 (42.2) no. (%)
Patients with adverse events as the primary reason for discontinuation (n = 525): 39 (7.4) no. (%)
Patients with adverse events leading to discontinuation (n = 525 (Table 5)): 42 (8.0) no. (%)
Death due to adverse event [1]: 10 (1.9) no. (%)
Death due to prostate cancer [1]: 8 (1.5) no. (%)
